Measured values taken from US20250002435A1, “ARYLATED FENCHONE DERIVATIVES, COMPOSITIONS COMPRISING THEM, PROCESSES FOR THEIR PREPARATION AND USES THEREOF” (priority 2021, published 2025).
Values joined by “and” are separate entries in the source; they are usually repeats but may differ in a detail not shown here. Equal values may be shown once.

What was measured:
[1] = system: medial meniscal tear (MMT) post-traumatic OA; assay: rat medial meniscal tear (MMT) model, body weight and dynamic weight bearing; type: in vivo; conditions: FGF18 60 μg/mL IA
Method: Initially, the required amount of HU308 dissolved in ethanol followed by addition of […] with vigorous mechanical agitation to form viscous micelle solution. Finally, the micelle solution was diluted in ice cold saline for injection or culture assays. Vehicle solution consisted of ethanol, cremophor and saline at 1:1:18 ratio. For intra-articular (IA) dosing 50 μL was injected into the tibiofemoral joint, at two doses; 8 and 24 μg/mL. Vehicle control contained 1:1:18 ethanol/Cremophor/saline, while positive control was of IA administered 60 μg/mL FGF-18 (R&D Systems, catalogue No. 8988-F18-050, lot No. BVE0521071) for IA dosing at 50 μL/knee.
(§1) The rat OA model employed was surgically-induced medial meniscal tear (MMT), wherein rats were anesthetized with Isoflurane (VetOne, catalogue No. 502017), and the right knee area was prepared for surgery. A skin incision was made over the medial aspect of the knee, and the medial collateral ligament was exposed by blunt dissection and then transected. The medial meniscus was cut through the full thickness to simulate a complete tear. Skin and subcutis were closed with 4-0 Coated Vicryl (polyglactin 910) Violet Braided Suture (Ethicon, catalogue No. J399H), and slight hand pressure was applied to the wound for approximately 3 minutes for hemostasis. Subcutaneous (SC) dose of buprenorphine (0.05 mg/kg) administered after the animal awakened post-surgery. Rats were weighed daily on study days −1 through 7 and again on days 14, 21, and 28 (prior to necropsy). […] The animals were euthanized for necropsy 28 days post-surgery, following Isoflurane anesthesia, and bled to exsanguination followed by bilateral pneumothorax.

[2] = system: medial meniscal tear (MMT) post-traumatic OA; assay: rat MMT model, histopathology of medial tibial joint 28 days post MMT; type: in vivo; conditions: FGF18 60 μg/mL IA
Method: as §1
Right knees were collected from all animals and trimmed of muscle and patellae. The trimmed joints were placed in 10% neutral buffered formalin (NBF) for histologic processing and evaluation. Samples were fixed for 3 days in 4% paraformaldehyde and decalcified for 21 days in 10% EDTA, pH=7.5. Then following dehydration in a graded series of ethanol washes, joints were embedded in paraffin and sectioned to 7 μm slices, following trimming off 1 mm until the tibiofemoral compartments are fully observed. Sections were obtained from each knee and stained with toluidine blue (0.04% in 0.2 M acetate buffer, Ph=4.0), based on a modified version of the methods used in Schmitz, et al. (2010), (11). Histopathology was carried out using an ocular micrometer. The following structural histological characterization was carried out:
Regional differences across the tibial plateau were taken into consideration by dividing each section into three zones: (1) outside, (2) middle, and (3) inside. In the surgical OA model, the outside (zone-1) and middle (zone-2) thirds are most severely affected, and milder changes are present on the inside third (zone 3). When zones were scored individually, scores were assigned based on percent area of the zone affected. General cartilage degeneration including chondrocyte death/loss, proteoglycan (PG) loss, and collagen loss or fibrillation. Zones were scored individually (0-5; 5 representing sever damage; SD3), and a sum of all three zones was calculated (termed “Total Joint scores”).
The zone related cartilage depth is calculated from the projected articular surface tot the tidemark. Reduced ratios embody less detected cartilage width vs projected cartilage with area, per zone.
Osteophyte thickness (tidemark to furthest point extending toward synovium) was measured and scored according to a range from 0-5, as in SD4.
Damage to the calcified cartilage layer and subchondral bone was scored using the criteria in SD5. Generally damage was considered as invagination of deep zone cartilage into the subchondral bone layer.
[…] Descriptions of other changes (typically fibrosis, or acute inflammation/neutrophil infiltration extending into the lateral compartment usually associated with IA treatments) were also provided, if present.

[3] = system: zymosan-induced swelling of hind paw; assay: zymosan-induced hind paw swelling in mice (5b, 5d, CBD); type: in vivo, mouse
Method: (§2) Cannabidiol (CBD), a major constituent of Cannabis, resembles fenchone derivatives in structure. It has powerful anti-inflammatory and anti-anxiety properties and therefore it is used as a positive control. […] In accordance with these findings, the anti-nociceptive effect, as determined by the von Frey monofilament assay peaked at 6 h (p<0.01) (FIG. 10C).
(§3) To induce inflammation, 40 μL of 1.5% (w/v) zymosan A (Sigma) suspended in 0.9% saline was injected into the sub-planter surface of the right hind paw of the mice. Immediately after zymosan injection, fenchone derivative was injected intraperitoneally (i.p.) after the compounds were dissolved in 0.1 mL vehicle containing ethanol:Cremophore:saline at a ratio of 1:1:18. Control mice were injected with the vehicle only. After 2, 6 and 24 hrs, paw swelling and pain perception were measured.
The paw swelling (thickness) was measured by calibrated calipers (0.01 mm), 2, 6 and 24 hrs following injections of zymosan alone or Fenchone derivatives.

[4] = system: zymosan-induced hyperalgesia; assay: von Frey nociceptive filament assay after zymosan (5b, 5d, CBD); type: in vivo, mouse
Method: as §2, §3
(§4) The hyperalgesia was evaluated by the paw withdrawal von Frey test at 2, 6, and 24 hrs following injections of zymosan and/or the test compounds. […] In this study, only 1.4-60 g corresponding to 4.17 to 5.88 log of force was used, to test the mouse sensitivity to a mechanical stimulus on the swollen paw. The measurements were performed in a quiet room. Before paw pain measurements, the animals were held for 10 sec. The trained investigator applied the filament to the central area of the hind paw with gradual increasing size. The test consisted of poking the middle of the hind paw to provoke a flexion reflex followed by a clear flinch response after paw withdrawal. Each one of the von Frey filaments was applied for approximately 3-4 s to induce the end-point reflex. The first testing was done by using the force filament of 1.4 g. If there was no withdrawal response, the next higher stimulus was tried. The mechanical threshold force (in grams (g)) was defined as the lowest force imposed by two von Frey monofilaments of various sizes, required to produce a paw retraction. The untreated left hind paw served as a control.

[5] = target: mCB1R (Mus musculus (Mouse), UniProt P47746); assay: [3H]CP-55,940 competition displacement binding, crude membranes from mouse brain; conditions: displacement of [3H]CP-55,940; NB = No binding detected at concentrations up to 10 μM; read-out: Ki (nM) mCB1R
Method: (§5) Affinity for Cannabinoid Receptors. The compounds were further characterized using a radioligand binding assay to determine their affinities for CB1R and CB2R based on each test compound's ability to displace the radiolabeled CB1R/CB2R agonist CP-55,940 from membranes prepared from a mouse brain (a source of CB1R) and membranes of cells expressing the human CB2R. […] Therefore, the compounds were assayed using membranes from CHO-K1 cells expressing the human CB2R (hCB2R).
(§6) Membranes from cells expressing human CB2R were purchased from Charles River, (Cat #A308; Ohio, US). Solutions of test compounds ranging from 0.1 nM to 10 mM were prepared in DMSO. The desired amount of membrane preparation was diluted with ice-cold assay buffer (50 mM Tris-HCl, 2.5 mM EDTA, 5 mM MgCl2, 0.1% BSA, pH 7.4) and was vortexed. […] The assays were incubated for 90 minutes at 30° C. and then immediately filtered on WHATMAN GF/B FilterPaper (Fired) using a Brandel M-24R Harvester followed by six washes with ice cold wash buffer (50 mM Tris-HCl, 2.5 mM EDTA, 5 mM MgCl2, 0.1% BSA, pH 7.4). Radioactivity was detected by adding the FilterPaper directly to the ULTIMA GOLD scintillation cocktail (PerkinElmer), incubation at 20° C. for 60 min and then counted using a Tri-Carb 4910TR liquid scintillation counter.

[6] = target: T1, hCB2R (Homo sapiens (Human), UniProt P34972); assay: [3H]CP-55,940 competition displacement binding, membranes of CHO-K1 cells expressing human CB2R
Method: as §5, §6

[7] = target: T1, hCB2R; assay: [35S]GTPγS binding assay, hCB2R CHO cell membranes; type: biochemical; conditions: for functional activity at hCB2R (agonist / inverse agonist): [35S]GTPγS binding
Method: Functional Characterization.
The method used for measuring agonist-stimulated binding of [^35S]GTPγS was based on a described protocol. The assays were carried out with GTPγS assay buffer (50 mM Tris HCl (pH 7.4), 0.2 mM EGTA, 9 mM MgCl2, 150 mM NaCl, 1 mg/ml BSA). Briefly, membranes (5 μg protein) were incubated in assay buffer containing 100 μM GDP, 0.05 nM [^35S]GTPγS, test compounds at various concentrations in siliconized glass tubes. Bound ligand was separated from free ligand by vacuum filtration. Nonspecific binding was determined using 10 μM GTPS. Basal binding was assayed in the absence of the ligand and in the presence of GDP.

[8] = system: zymosan-induced paw swelling; assay: zymosan mouse paw inflammatory pain model, paw swelling, with or without CB2 antagonists; type: in vivo; conditions: 10 mg/kg AM630 with 1D, 24 h
Method: (§7) To induce inflammation, 40 μL of 1.5% (w/v) zymosan A (Sigma) suspended in 0.9% saline was injected into the sub-planter surface of the right hind paw of the mice. Immediately after zymosan injection, antagonists were injected intraperitoneally (IP) and after 30 minutes, the fenchone derivatives dissolved in 0.1 mL vehicle containing ethanol:Cremophore:saline at a ratio of 1:1:18 were injected. Control mice were injected with the vehicle only. After 2, 6, and 24 hrs, paw swelling, and pain perception were measured.
as §4, with “Specifically, measurement of Oedema Formation was assessed by monitoring paw swelling via calibrated calipers (0.01 mm), 6 and 24 hrs following injections of zymosan alone and/or the test compounds. Pain hyperalgesia” for “The hyperalgesia”, “at” for “at 2,”, “24 h” for “24 hrs”

[9] = system: zymosan-induced hyperalgesia; assay: zymosan mouse paw inflammatory pain model, von Frey test, with or without CB2 antagonists; type: in vivo; conditions: addition of AM630, 24 h
Method: as §7
as §4, with “Specifically, measurement of Oedema Formation was assessed by monitoring paw swelling via calibrated calipers (0.01 mm), 6 and 24 hrs following injections of zymosan alone and/or the test compounds. Pain hyperalgesia” for “The hyperalgesia”, “at” for “at 2,”, “24 h” for “24 hrs”

[10] = system: TNFα; assay: serum TNFα ELISA 24 h after zymosan injection; type: in vivo, mouse; conditions: AM630 added to 1D
Method: Blood was collected 24 h after zymosan injection, and the sera were assayed for TNFα using a mouse TNFα ELISA kit (R&D Systems, Minneapolis, MN, USA), according to the manufacturer's instructions.

T1 sequence (P34972 whole entry): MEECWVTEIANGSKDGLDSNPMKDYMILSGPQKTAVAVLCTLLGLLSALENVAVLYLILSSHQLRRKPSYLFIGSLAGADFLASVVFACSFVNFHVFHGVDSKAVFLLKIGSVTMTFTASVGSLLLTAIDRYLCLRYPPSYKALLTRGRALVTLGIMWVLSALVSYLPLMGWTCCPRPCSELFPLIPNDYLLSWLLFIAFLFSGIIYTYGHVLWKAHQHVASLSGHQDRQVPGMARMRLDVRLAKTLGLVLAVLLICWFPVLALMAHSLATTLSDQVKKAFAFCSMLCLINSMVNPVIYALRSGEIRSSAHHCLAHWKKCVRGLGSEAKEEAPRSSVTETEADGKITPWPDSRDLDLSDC
Chain of mCB1R (P47746 whole entry): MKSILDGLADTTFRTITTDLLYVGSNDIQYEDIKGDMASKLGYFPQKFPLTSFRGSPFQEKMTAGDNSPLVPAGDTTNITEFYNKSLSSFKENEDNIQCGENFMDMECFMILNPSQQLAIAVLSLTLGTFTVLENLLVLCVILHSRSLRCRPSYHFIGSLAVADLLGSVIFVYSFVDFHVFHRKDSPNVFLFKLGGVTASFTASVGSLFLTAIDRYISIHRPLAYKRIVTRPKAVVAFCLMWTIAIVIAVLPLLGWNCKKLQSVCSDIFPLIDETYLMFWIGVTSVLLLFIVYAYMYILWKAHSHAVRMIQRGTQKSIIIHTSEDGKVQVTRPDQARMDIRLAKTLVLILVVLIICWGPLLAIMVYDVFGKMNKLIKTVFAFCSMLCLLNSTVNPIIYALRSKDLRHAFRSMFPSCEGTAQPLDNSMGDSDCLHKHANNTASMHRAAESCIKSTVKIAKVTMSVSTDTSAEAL

## FGF18: positive control, IA administered 60 μg/mL FGF-18 (R&D Systems); anabolic effect to articular cartilage
[1]
  cumulative area under the curves for dynamic weight bearing (DWB): highest values
[2]
  mean zonal depth ratios: reduced depth ratios
  zone 3 cartilage degeneration score: no beneficial effect
[2]; vs 1D low dose and Vehicle
  total zonal cartilage degeneration scores: significantly reduced degenerative scores
[2]; vs all groups
  medial synovial scores: highest
  osteophyte measurements and scores: significantly higher measurements and scores
[2]; vs the 1D high dose
  bone damage: relatively reduced levels

## C=C(C)[C@@H]1CCC(C)=C[C@H]1c1c(O)cc(CCCCC)cc1O [CBD, Cannabidiol, reference compound]
[3]; 5 mg/kg ip, 6 h, FIG. 10A
  inhibition of inflammation (paw swelling): 40%
[3]; 5 mg/kg ip, 24 h, FIG. 10A
  inhibition of inflammation (paw swelling): 43%
[3]; positive control in the 5d experiment (FIG. 10B), 6 h
  inhibition of inflammation (paw swelling): 58%
[3]; positive control in the 5d experiment (FIG. 10B), 24 h
  inhibition of inflammation (paw swelling): 78%
[4]; CBD positive control
  time at which the anti-nociceptive effect peaked (von Frey): 6 h

## CCCCCCC(C)(C)c1cc(O)c(C2(O)C3(C)CCC(C3)C2(C)C)c(OC)c1 (stereo not shown) [Compound 5d, 2-(2′-hydroxy-6′-methoxy-4′-(2″-methyloctan-2″-yl)phenyl)-1,3,3-trimethyl-bicyclo[2.2.1]heptan-2-ol]
[5]
  Ki: 451 nM
[6]; displacement of [3H]CP-55,940
  Ki: 24.6 nM
[6]; selectivity index from Ki values
  mCB1R/hCB2R: 18.4
[7]
  functional activity at hCB2R (agonist / inverse agonist): agonist
[7]; [35S]GTPγS binding to hCB2R, two independent experiments in triplicate
  EC50: 14.8 nM
[7]; percentage of HU-308 response at 1 μM
  E(max) %: 105.05%
[3]; 25 mg/kg ip, 24 h
  inhibition of inflammation (paw swelling): 55% and 56%
[3]; 50 mg/kg ip, 2 h
  inhibition of inflammation (paw swelling): 38%
[3]; 50 mg/kg ip, 6 h
  inhibition of inflammation (paw swelling): 67%
[3]; 50 mg/kg ip, 24 h
  inhibition of inflammation (paw swelling): 56%
[4]; 25 and 50 mg/kg ip, after 6 h
  anti-nociceptive effect (von Frey): moderate anti-nociceptive effects

## COc1ccc(C(=O)c2c(C)n(CCN3CCOCC3)c3cc(I)ccc23)cc1 [AM630, reference compound]
[8]
  effect of antagonist on the 1D-reduced swelling: fully inhibited its effect
[9]
  effect of antagonist on the 1D von Frey effect: reversed
[10]
  effect of antagonist on the 1D reduction of TNF-α: abolished

## CCCCCc1cc(O)c(C2(O)C3(C)CCC(C3)C2(C)C)c(OC)c1 (single isomer, unassigned) [Compound 5b, 2-(2′-hydroxy-6′-methoxy-4′-pentylphenyl)-1,3,3-trimethylbicyclo[2.2.1]heptan-2-ol]
[7]
  functional activity at hCB2R (agonist / inverse agonist): agonist
[4]; 10 and 25 mg/kg ip, after 6 and 24 h
  anti-nociceptive effect (von Frey): strong anti-nociceptive effects
